From patent US7087648B1, “Methods for modulating macrophage proliferation using polyamine analogs” (The Regents of the University of California, priority 1997, dated 2006)

How the values were obtained:
[1] = tested on: CD14^+/PCNA^+ peripheral blood macrophage; experiment: In vitro CD14/PCNA staining (FACSCAN) of PBMC from AIDS dementia patients cultured five days with agent; format: cell-based, human; settings: for CD14^+/PCNA^+ / CD14^+/PCNA^− / total CD14: HIV dementia patient five; for CD14^+/PCNA^+: 0 drug: 74; for CD14^+/PCNA^−: 0 drug: 472; for total CD14: 0 drug: 546; for effect on macrophage proliferation: blood of one patient with AIDS dementia, Table 2; for CD14^+, PCNA^+ / TOTAL CD14/PCNA: one patient with AIDS dementia; for CD14^+, PCNA^+: 0 drug: 64/5000; for TOTAL CD14/PCNA: 0 drug: 388; for inhibition and/or killing of blood PCNA^+/CD14^+ cells: summary of the data shown
Experimental: We had previously separated peripheral blood monocytes on Ficoll. […] We then used Percoll gradient separation, which allows for denser cells to be captured. A two-step gradient was prepared in 15 mL conical tubes: bottom layer of 1.087 density Percoll, overlaid with 1.077 density. 1.5 mL whole heparinised blood was mixed with an equal volume of isotonic saline. This blood/saline was layered over the gradient and centrifuged. Cells from the 1.077 and 1.087 interfaces were collected, combined, and washed in 5 volumes of RPMI 1640. […] All further experiments were performed using 1.087 gradient.
Five×10^5 PBMC's isolated through a 1.087 g/cc Percoll/saline gradient were exposed to varied concentrations of agent after baseline CD14/PCNA staining was performed. The cells were cultured at 5×10^5 cells in RPM1-1640/10% fetal calf serum in a polypropylene tube (Falcon) at 37° C. for five days. After five days CD14/PCNA staining was performed on control and agent-treated cultures. FACSCAN analysis of PCNA-positive cells in control cultures was compared with agent-treated cultures and the percentage of control PCNA/CD14 cells was calculated. The results of such an experiment in which the effect of polyamine analog DEHOP (SunPharm; Florida) on proliferating macrophages (as detected by PCNA) from the blood of four patients with AIDS dementia are shown in FIG. 1A (with underlying data provided in Table 3). […] A comparison of the inhibitory effect of DEHOP and cyclosphosphamide, another anti-proliferative agent, was performed in vitro using the blood of one of these patients (“CB”).

[2] = tested on: spermidine-spermine N1-acetyltransferase (SSAT); settings: human melanoma cells; cited from earlier work
[3] = tested on: CD14^+/PCNA^+ peripheral blood macrophage; experiment: In vitro CD14/PCNA staining (FACSCAN) of PBMC from AIDS dementia patients cultured five days with agent; format: cell-based, human; settings: one patient with AIDS dementia, 0 drug: 35/5000
PCNA/CD14 cells = experiment: PCNA expression of peripheral macrophages (CD14 cells) from patients with AD, five days culture with agent; format: cell-based, human; settings: FIG. 3
Experimental: We had previously separated peripheral blood monocytes on Ficoll. […] We then used Percoll gradient separation, which allows for denser cells to be captured. A two-step gradient was prepared in 15 mL conical tubes: bottom layer of 1.087 density Percoll, overlaid with 1.077 density. 1.5 mL whole heparinised blood was mixed with an equal volume of isotonic saline. This blood/saline was layered over the gradient and centrifuged. Cells from the 1.077 and 1.087 interfaces were collected combined, and washed in 5 volumes of RPMI 1640.
Five×10^5 PBMC's isolated through a 1.087 g/cc Percoll/saline gradient were exposed to varied concentrations of agent after baseline CD14/PCNA staining was performed as described in Example 3. The cells were cultured at 5×1O^5 cells in RPM1-1640/10% fetal calf serum in a polypropylene tube (Falcon) at 37° C. for five days. After five days CDI 14/PCNA staining was performed on control and agent-treated cultures. FACSCAN analysis of PCNA-positive cells in control cultures was compared with agent-treated cultures and percentage of control PCNA/CD14 cells was calculated. Two polyamine analogs, DENOP (SunPharm; Florida) and SL-11037 were tested.

PCNA^+ macrophage = experiment: Inhibition of PCNA^+ macrophage detection, peripheral blood of HIV^+ sarcoid patient; format: cell-based, human; settings: 60% of input CD14 cells PCNA^+, 96 hr after drug exposure and culture, FIG. 5
Experimental: Five×10^5 PBMC's isolated through a 1.087 g/cc Percoll/saline gradient were exposed to varied concentrations of agent after baseline CD14/PCNA staining was performed. […] FACSCAN analysis of PCNA-positive cells in control cultures was compared with agent-treated cultures and the percentage of control PCNA/CD14 cells was calculated.

[4] = biological target: T1, S-adenosylmethionine decarboxylase (Homo sapiens, UniProt P17707); settings: competing with S-adenosylmethionine; cited from earlier work
T1 sequence (P17707 68-334 limits assumed): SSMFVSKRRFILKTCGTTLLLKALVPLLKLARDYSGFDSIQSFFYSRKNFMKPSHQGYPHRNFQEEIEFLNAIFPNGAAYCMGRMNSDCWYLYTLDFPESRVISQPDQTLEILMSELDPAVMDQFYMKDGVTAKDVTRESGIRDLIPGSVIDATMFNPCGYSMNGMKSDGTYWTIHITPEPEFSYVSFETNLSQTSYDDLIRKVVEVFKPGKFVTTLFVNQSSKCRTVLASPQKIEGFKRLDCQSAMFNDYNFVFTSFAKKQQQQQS
T1 sequence (P17707 1-67 limits assumed): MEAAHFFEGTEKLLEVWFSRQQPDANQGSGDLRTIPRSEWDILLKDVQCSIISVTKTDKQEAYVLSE

spermine synthase = biological target: T2, spermine synthase (Homo sapiens, UniProt P52788); settings: competing with spermidine; cited from earlier work
T2 sequence (P52788 1-366): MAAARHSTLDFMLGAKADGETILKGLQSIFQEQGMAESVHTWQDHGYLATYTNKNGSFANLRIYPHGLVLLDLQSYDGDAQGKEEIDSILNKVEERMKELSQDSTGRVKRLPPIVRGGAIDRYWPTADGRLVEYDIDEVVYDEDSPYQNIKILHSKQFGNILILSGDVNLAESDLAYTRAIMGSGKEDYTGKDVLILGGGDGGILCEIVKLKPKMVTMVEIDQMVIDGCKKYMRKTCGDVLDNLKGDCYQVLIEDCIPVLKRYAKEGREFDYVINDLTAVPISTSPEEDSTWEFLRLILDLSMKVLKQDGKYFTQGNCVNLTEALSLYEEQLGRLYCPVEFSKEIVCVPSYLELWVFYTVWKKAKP

spermine synthetase = settings: competing with putrescine; cited from earlier work
leukemic ascites cells = settings: cited from earlier work
P388 leukemia = settings: mice bearing P388 leukemia; cited from earlier work
[5] = tested on: rat aortic smooth muscle cells; settings: in culture for 8 to 15 days; cited from earlier work
[6] = tested on: human brain tumor cell lines; settings: cited from earlier work

## O=P1(N(CCCl)CCCl)NCCCO1 (stereo not drawn) [Cyclophosphamide, reference compound]
[1]; 5 μg/ml
  CD14^+/PCNA^+: 70 #cells/10,000 PBMC
  CD14^+/PCNA^−: 272 #cells/10,000 PBMC
  total CD14: 342 #cells/10,000 PBMC
[1]; 0.005 (μg/ml)
  CD14^+/PCNA^+: 71 #cells/10,000 PBMC
  CD14^+/PCNA^−: 295 #cells/10,000 PBMC
  total CD14: 366 #cells/10,000 PBMC
[1]; 0.05 (μg/ml)
  CD14^+/PCNA^+: 99 #cells/10,000 PBMC
  CD14^+/PCNA^−: 455 #cells/10,000 PBMC
  total CD14: 554 #cells/10,000 PBMC
[1]; 0.5 (μg/ml)
  CD14^+/PCNA^+: 49 #cells/10,000 PBMC
  CD14^+/PCNA^−: 390 #cells/10,000 PBMC
  total CD14: 439 #cells/10,000 PBMC
[1]; blood of patient five
  in vitro toxicity in this assay system: lack of in vitro toxicity

## NCCCNCCCCNCCCN [spermine]
[2]
  increase in immunodetectable SSAT protein: ~7 fold
  increase of SSAT mRNA levels: ~3 fold

## CCNCCCNC[C@@H]1CC[C@H]1CNCCCNCC.Cl.Cl.Cl.Cl (relative stereo) [SL-11038, N-ethyl-N′-(2-(3′-ethylamino-propylaminomethyl)-trans-cyclobutylmethyl)-propane 1; 3-diamine tetrahydrochloride]
[3]; 2 μM
  CD14^+, CD69^+: 32/ NO. OF CELLS/5,000
[3]; 10 μM
  CD14^+, CD69^+: 32/ NO. OF CELLS/5,000
[3]; 50 μM
  CD14^+, CD69^+: 26/ NO. OF CELLS/5,000
[1]
  effect on macrophage proliferation: showed inhibitory effects
  inhibition and/or killing of blood PCNA^+/CD14^+ cells: potent inhibition and/or killing
[1]; 2 μM
  CD14^+, PCNA^+: 104/ NO. OF CELLS/5,000
  TOTAL CD14/PCNA: 356 NO. OF CELLS/5,000
[1]; 10 μM
  CD14^+, PCNA^+: 36/ NO. OF CELLS/5,000
  TOTAL CD14/PCNA: 205 NO. OF CELLS/5,000
[1]; 50 μM
  CD14^+, PCNA^+: 24/ NO. OF CELLS/5,000
  TOTAL CD14/PCNA: 104 NO. OF CELLS/5,000

## CCNCCCNCCCNCCCNCC [DENOP, diethyl-norspermine]
[3]; 2 μM
  CD14^+, CD69^+: 32/ NO. OF CELLS/5,000
[3]; 10 μM
  CD14^+, CD69^+: 23/ NO. OF CELLS/5,000
[3]; 50 μM
  CD14^+, CD69^+: 32/ NO. OF CELLS/5,000
PCNA/CD14 cells
  percentage of proliferating macrophages (PCNA/CD14 cells): significantly reduced the percentage of proliferating macrophages
[1]
  effect on macrophage proliferation: showed inhibitory effects
  inhibition and/or killing of blood PCNA^+/CD14^+ cells: potent inhibition and/or killing
[1]; 2 μM
  CD14^+, PCNA^+: 34/ NO. OF CELLS/5,000
  TOTAL CD14/PCNA: 149 NO. OF CELLS/5,000
[1]; 10 μM
  CD14^+, PCNA^+: 23/ NO. OF CELLS/5,000
  TOTAL CD14/PCNA: 50 NO. OF CELLS/5,000
[1]; 50 μM
  CD14^+, PCNA^+: 19/ NO. OF CELLS/5,000
  TOTAL CD14/PCNA: 43 NO. OF CELLS/5,000

## CCNCCCNC[C@@H]1C[C@@H]1CNCCCNCC.Cl.Cl.Cl.Cl [SL-11037, N-ethyl-N′-(2-(3′-ethylamino-propylaminomethyl)-cis-cyclopropylmethyl)-propane 1,3-diamine tetrahydrochloride]
[3]; 2 μM
  CD14^+, CD69^+: 46/ NO. OF CELLS/5,000
[3]; 10 μM
  CD14^+, CD69^+: 49/ NO. OF CELLS/5,000
[3]; 50 μM
  CD14^+, CD69^+: 33/ NO. OF CELLS/5,000
PCNA/CD14 cells
  percentage of proliferating macrophages (PCNA/CD14 cells): significantly reduced the percentage of proliferating macrophages
[1]
  effect on macrophage proliferation: showed inhibitory effects
  inhibition and/or killing of blood PCNA^+/CD14^+ cells: potent inhibition and/or killing
[1]; 2 μM
  CD14^+, PCNA^+: 49/ NO. OF CELLS/5,000
  TOTAL CD14/PCNA: 276 NO. OF CELLS/5,000
[1]; 10 μM
  CD14^+, PCNA^+: 32/ NO. OF CELLS/5,000
  TOTAL CD14/PCNA: 116 NO. OF CELLS/5,000
[1]; 50 μM
  CD14^+, PCNA^+: 11/ NO. OF CELLS/5,000
  TOTAL CD14/PCNA: 79 NO. OF CELLS/5,000

## CCNCCCNC[C@@H]1C[C@H]1CNCCCNCC.Cl.Cl.Cl.Cl (relative stereo) [SL-11044, N-ethyl-N′-(2-(3′-ethylamino-propylaminomethyl)-trans-cyclopropylmethyl)-propane 1,3-diamine tetrahydrochloride]
PCNA^+ macrophage
  inhibition of PCNA^+ macrophage detection: potent inhibitors
[1]
  inhibition and/or killing of blood PCNA^+/CD14^+ cells: potent inhibition and/or killing

## CC(C=NNC(=N)NC1CCCC1)=NNC(=N)NC1CCCC1 [MGBCP, methylglyoxal-bis(cyclopentylamidinohydrazone)]
[4]
  inhibition of S-adenosylmethionine decarboxylase: inhibited
Spermine synthase
  inhibition of spermine synthase: inhibited
Spermine synthetase
  inhibition of spermine synthetase: inhibited
Leukemic ascites cells
  spermidine and spermine in cells: depleted
P388 leukemia
  survival time: prolonged survival time

## CCNCCCNCCCNCCCNCC [Bis-ethyl norspermine, 1,11 -bis(ethyl)norspermine]
[5]
  cell growth: inhibit the growth

## CCNCCCCNCCCCNCCCCNCCCCNCC [BE-4444, 1,19-bis(ethylamino)-5,10,15-triazanonadecane]
[6]
  growth, survival, and cell cycle progression: directly affects growth, survival, and cell cycle progression
[1]; FIG. 1B
  killing of PCNA^+/CD14^+ cells: potent killing
[1]
  inhibition and/or killing of blood PCNA^+/CD14^+ cells: potent inhibition and/or killing

## CCNCCCNC/C=C\CNCCCNCC.Cl.Cl.Cl.Cl [SL-11047, N,N′-bis(3-ethylaminopropyl)-cis-but-2-ene-1,4-diamine tetrahydrochloride]
PCNA^+ macrophage
  inhibition of PCNA^+ macrophage detection: potent inhibitors
[1]; FIG. 6, averages of several (N) experiments
  PCNA^+/CD14 cell survival: decrease
[1]
  inhibition and/or killing of blood PCNA^+/CD14^+ cells: potent inhibition and/or killing

## CCNCCCNCCCNCCCNCC [DENSPM, 1,1 1-diethylnorspermine]
[2]
  increase in immunodetectable SSAT protein: 300 fold
  increase of SSAT mRNA levels: up to 20 fold
